≈ marks a conversion by molar mass, not a printed value.
Legend:
ddY mice = details: mouse, in vivo, ip, 500 mg/kg
[1] = Stability (half life) in phosphate buffers of various pH; type: physicochemical; details: phosphate buffer, pH 4 to 9, 28° C.
Method: By adding 2% sodium hydroxide or 10% hydrochloric acid, the pH of 0.05 M phosphate buffer is adjusted to 4, 5, 6, 7, 8 and 9, respectively, and distributed into test tubes in an amount of 3 ml. Concentrated solution of antibiotic OA-6129A (0.05 ml) is added to each test tube and allowed to stand in a thermostatic chamber of 28° C. The time course curve of the concentration decrease of antibiotic OA-6129A is drawn by spectrophotometric measurement at 300 nm, from which the half life of the antibiotic at the indicated pH is calculated. As a control, antibiotic PS-5, a carbapenem compound described in the above-cited reference is simultaneously tested.

Alcaligenes Faecolis A1 = assay: MIC by agar dilution method; type: cell-based; details: Alcaligenes, 18 h
Method: (§1) The MIC is measured by an agar dilution method based on the standard method of the Japanese Society of Chemotherapy (Japanese Society of Chemotherapy: The Revised Method of Determination of MIC Values, Chemotherapy 22, 1126-1128, […]). Specifically, the antibiotic is serially diluted with a 1/50 M phosphate buffer at a pH of 7.3 to prepare a twofold dilution series. One milliliter of each dilution and 9 ml of an agar medium (Heart Infusion Agar; a product of Difco Laboratories) are mixed and allowed to solidify in a Petri dish having a diameter of 9 cm. One loopful of the stock culture of the test microbe is inoculated in trypto-soy buillon (a product of Eiken Kagaku Co., Ltd.) and incubated at 37° C. for 18 hours. The resulting culture broth is diluted to a concentration of about 10^6 cells/ml with physiological saline and inoculated on the agar plate by means of a microplanter.

[2] = test system: Bacillus subtillis ATCC 6633; assay: MIC by agar dilution method; type: cell-based; details: ATCC6633; Bacillus subtillis ATCC 6633; agar dilution, 37° C., 18 hours; read-out: MIC
Method: as §1

[3] = test system: Citrobacter Freundii GN346; assay: MIC by agar dilution method; type: cell-based; details: 37° C., 18 hours
Method: as §1

Comamonas terrigena B996 = assay: MIC by agar dilution method; type: cell-based; details: 37° C., 18 hours
Method: as §1

E. coli RGN823 = assay: MIC by agar dilution method; type: cell-based; details: Escherichia coli, 37° C., 18 hours
Method: as §1

Ent. cloacae 45 = assay: MIC by agar dilution method; type: cell-based; details: Enterobacter cloacae, 37° C., 18 hours
Method: as §1

Ent. sp. E8 = assay: MIC by agar dilution method; type: cell-based; details: 18 h
Method: as §1

[4] = test system: Enterobacter aerogenes E19; assay: MIC by agar dilution method; type: cell-based; details: Klebsiella aerogenes, 37° C., 18 hours
Method: as §1

Escherichia coli K-12 = assay: MIC by agar dilution method; type: cell-based; details: Escherichia coli, K12, 18 h
Method: as §1

[5] = test system: Klebsiella pneumoniae K13; assay: MIC by agar dilution method; type: cell-based; details: 37° C., 18 hours
Method: as §1

P. rettgeri P7 = assay: MIC by agar dilution method; type: cell-based; details: Providencia rettgeri, P7, 18 h
Method: as §1

P. sp. P22 = assay: MIC by agar dilution method; type: cell-based; details: 37° C., 18 hours
Method: as §1

P. vulgaris GN76 = assay: MIC by agar dilution method; type: cell-based; details: Proteus vulgaris, 37° C., 18 hours
Method: as §1

Proteus mirabilis P6 = assay: MIC by agar dilution method; type: cell-based; details: Proteus mirabilis, P6, 18 h
Method: as §1

Providencia sp. P8 = assay: MIC by agar dilution method; type: cell-based; details: Providencia, SP.P8, 18 h
Method: as §1

Ps. aeruginosa NCTC10490 = assay: MIC by agar dilution method; type: cell-based; details: Pseudomonas aeruginosa, 37° C., 18 hours
Method: as §1

[6] = test system: Pseudomonas aenginosa IFO3445; assay: MIC by agar dilution method; type: cell-based; details: 37° C., 18 hours
Method: as §1

S. aureus Russell = assay: MIC by agar dilution method; type: cell-based; details: Staphylococcus aureus; S. aureus Russell; agar dilution, 37° C., 18 hours; read-out: MIC
Method: as §1

S. aureus Smith = assay: MIC by agar dilution method; type: cell-based; details: Staphylococcus aureus, 37° C., 18 hours
Method: as §1

S. epidermidis = assay: MIC by agar dilution method; type: cell-based; details: Staphylococcus epidermidis, 37° C., 18 hours
Method: as §1

Sarcina lutea S19 = assay: MIC by agar dilution method; type: cell-based; details: Micrococcus luteus, 37° C., 18 hours
Method: as §1

Ser. marcesceus T55 = assay: MIC by agar dilution method; type: cell-based; details: 37° C., 18 hours
Method: as §1

Serratia marcesceus S18 = assay: MIC by agar dilution method; type: cell-based; details: 37° C., 18 hours
Method: as §1

[7] = test system: Staphylococcus aureus 209P; assay: MIC by agar dilution method; type: cell-based; details: 37° C., 18 hours
Method: as §1

CC(O)C1C(=O)N2C(C(=O)O)=C(SCCNC(=O)CCNC(=O)C(O)C(C)(C)CO)CC12 (centres unmarked) [OA-6129B]
acute toxicity (ddY mice): no acute toxicity is observed | stability relative to OA-6129A [1]: substantially the same stability as antibiotic OA-6129A

Cc1nnc(SCC2=C(C(=O)O)N3C(=O)[C@@H](NC(=O)Cn4cnnn4)[C@H]3SC2)s1 [CEZ, reference compound]
MIC (Alcaligenes Faecolis A1): 3.13 µg/mL (≈ 6.89 µM) | MIC [2]: 0.1 µg/mL (≈ 0.22 µM) | MIC [3]: > 400 µg/mL | MIC (Comamonas terrigena B996): 0.05 µg/mL (≈ 0.11 µM) | MIC (E. coli RGN823): 1.56 µg/mL (≈ 3.43 µM) | MIC (Ent. cloacae 45): > 400 µg/mL | MIC (Ent. sp. E8): 3.13 µg/mL (≈ 6.89 µM) | MIC [4]: > 400 µg/mL | MIC (Escherichia coli K-12): 0.78 µg/mL (≈ 1.72 µM) | MIC [5]: 25 µg/mL (≈ 55 µM) | MIC (P. rettgeri P7): 3.13 µg/mL (≈ 6.89 µM) | MIC (P. sp. P22): > 400 µg/mL | MIC (P. vulgaris GN76): > 400 µg/mL | MIC (Proteus mirabilis P6): 3.13 µg/mL (≈ 6.89 µM) | MIC (Providencia sp. P8): 1.56 µg/mL (≈ 3.43 µM) | MIC (Ps. aeruginosa NCTC10490): > 400 µg/mL | MIC [6]: > 400 µg/mL | MIC (S. aureus Russell): 0.2 µg/mL (≈ 0.44 µM) | MIC (S. aureus Smith): 0.2 µg/mL (≈ 0.44 µM) | MIC (S. epidermidis): 0.2 µg/mL (≈ 0.44 µM) | MIC (Sarcina lutea S19): 0.39 µg/mL (≈ 0.858 µM) | MIC (Ser. marcesceus T55): > 400 µg/mL | MIC (Serratia marcesceus S18): > 400 µg/mL | MIC [7]: 0.1 µg/mL (≈ 0.22 µM)

Reference: patent US4426390A, “Novel β-lactam compounds, process for producing thereof, and use thereof as medicines” (Sanraku-Ocean Co., Ltd., priority 1980, dated 1984)
